ChEMBL document CHEMBL4325920, “Discovery of Clinical Candidate BMS-823778 as an Inhibitor of Human 11β-Hydroxysteroid Dehydrogenase Type 1 (11β-HSD-1)” (ACS Med Chem Lett, 2018)
Active and inactive are the calls of the source. The calls are words filed in the database; no cut-off is given here.

Experiments:
[1] = molecular target: T1, 11-beta-hydroxysteroid dehydrogenase type 2 (Homo sapiens) (UniProt P80365); assay: Inhibition of recombinant human 11beta-HSD2 expressed in cells up to 30 uM using […] as substrate by LC-MS analysis; type: cell-based
T1 sequence (whole entry): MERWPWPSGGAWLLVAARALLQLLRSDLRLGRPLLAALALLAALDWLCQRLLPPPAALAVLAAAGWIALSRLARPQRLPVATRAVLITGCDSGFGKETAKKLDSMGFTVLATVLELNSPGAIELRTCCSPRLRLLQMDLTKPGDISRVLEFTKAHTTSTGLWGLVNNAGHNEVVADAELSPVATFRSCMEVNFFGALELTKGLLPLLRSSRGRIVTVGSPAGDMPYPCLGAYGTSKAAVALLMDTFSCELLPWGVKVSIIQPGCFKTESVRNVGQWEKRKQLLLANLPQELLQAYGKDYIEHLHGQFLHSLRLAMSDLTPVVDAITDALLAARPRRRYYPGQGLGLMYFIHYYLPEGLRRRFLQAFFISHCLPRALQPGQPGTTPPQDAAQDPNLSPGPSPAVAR

[2] = molecular target: T2, 11-beta-hydroxysteroid dehydrogenase type 2 (Mus musculus) (UniProt P51661); assay: Inhibition of mouse 11beta-HSD2 up to 20 uM
T2 sequence (whole entry): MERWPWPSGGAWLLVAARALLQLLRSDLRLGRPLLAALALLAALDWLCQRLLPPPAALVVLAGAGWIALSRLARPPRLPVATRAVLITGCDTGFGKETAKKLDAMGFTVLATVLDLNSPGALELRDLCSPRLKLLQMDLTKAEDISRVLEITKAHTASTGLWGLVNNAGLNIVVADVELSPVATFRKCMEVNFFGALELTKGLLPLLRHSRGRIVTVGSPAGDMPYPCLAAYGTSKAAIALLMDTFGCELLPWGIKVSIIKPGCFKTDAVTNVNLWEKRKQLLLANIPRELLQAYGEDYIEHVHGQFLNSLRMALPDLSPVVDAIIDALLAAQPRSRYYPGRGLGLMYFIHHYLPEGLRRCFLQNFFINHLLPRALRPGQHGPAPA

[3] = molecular target: T3, 11-beta-hydroxysteroid dehydrogenase type 2 (Rattus norvegicus) (UniProt P50233); assay: Inhibition of rat 11beta-HSD2 up to 20 uM
T3 sequence (whole entry): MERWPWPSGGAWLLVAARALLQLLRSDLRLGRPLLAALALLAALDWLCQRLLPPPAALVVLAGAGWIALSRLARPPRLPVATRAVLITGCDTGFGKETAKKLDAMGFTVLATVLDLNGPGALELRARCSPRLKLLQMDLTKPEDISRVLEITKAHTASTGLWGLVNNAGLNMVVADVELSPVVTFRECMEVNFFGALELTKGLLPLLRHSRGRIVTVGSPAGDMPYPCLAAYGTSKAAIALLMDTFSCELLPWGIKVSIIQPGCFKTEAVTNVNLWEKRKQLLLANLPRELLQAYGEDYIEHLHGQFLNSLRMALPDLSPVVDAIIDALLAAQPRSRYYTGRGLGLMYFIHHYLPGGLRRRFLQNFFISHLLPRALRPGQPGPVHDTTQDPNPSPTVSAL

Macaca fascicularis = species on record: Macaca fascicularis; assay: Inhibition of cynomolgus monkey 11beta-HSD2 up to 20 uM
[4] = Selectivity ratio of Ki for recombinant mouse 11beta-HSD1 expressed in HEK293 cell microsomes to Ki for recombinant cynomolgus monkey 11beta-HSD1 expressed in HEK293 cell microsomes

- inhibition [1]: inactive
- inhibition [2]: inactive
- inhibition [3]: inactive
- inhibition (Macaca fascicularis): inactive
- Ratio Ki [4]: 55
SMILES: CC(C)(O)c1cccn2c(C3(c4ccc(Cl)cc4)CC3)nnc12
